According to PubChem BioAssay AID1996:
In brackets after ≈: the same amount, converted by molar mass. Residues, ends and D or L forms follow the SMILES beside them. *: point of attachment. Piperidide = C1CCN(*)CC1; PhAc = O=C(Cc1ccccc1)*

settings: buffer; pH 7.4; 200.0 µM

Row | SMILES | solubility kinetic [µg/mL]
1 | Cc1ccc(NC(=O)NCc2nc3ccccc3n2C)cc1 | 34.8 (≈ 118 µM)
2 | CC(C)(C)N(CC#CCC(O)(c1ccccc1)c1ccccc1)CCO | 47.1 (≈ 134 µM)
3 | CC1(C)CC2(CCCN(C(=S)Nc3ccccc3)C2)CCO1 (centres undefined) | 46.4 (≈ 146 µM)
4 | O=C(CNC(=O)Cc1ccccc1)NCC(=O)N1CCCCC1 (PhAc-Gly-Gly-Piperidide) | > 47.6
5 | CCOC(=O)N1CCN(CC(=O)Nc2ccc(F)cc2)CC1 | > 46.4
6 | COc1ccc(C(=O)N/C(=C\c2ccco2)C(=O)OCc2ccco2)cc1 | > 55.1
7 | O=C1CNC(=S)N1C(CO)c1ccccc1 (centres undefined) | > 35.4
8 | Cc1cccn2c(=O)c(/C=C(\C#N)C(N)=O)c(Oc3ccccc3)nc12 | 7.9 (≈ 22.8 µM)
9 | CC(=O)N1CCc2ccc(S(=O)(=O)N3CCc4ccccc43)cc21 | 0.5 (≈ 1.46 µM)
10 | O=C(/C=C/c1cccnc1)c1cc(F)ccc1O | 19.8 (≈ 81.4 µM)
11 | Cc1ccc(C)c(C(=O)CSc2nc(C)cc(=O)[nH]2)c1 | 27.5 (≈ 95.4 µM)
12 | COc1ccc(CNC(=O)c2cc(C(=O)C3CC3)c[nH]2)cc1 | 2 (≈ 6.7 µM)
13 | COc1ccc(/C=C/C(=O)OCC(=O)NCCCc2ccccc2)cc1OC | 20 (≈ 52.2 µM)
14 | CSc1ccc(/C=C/C(=O)OCC(=O)N(C)CCC#N)cc1 | 29.9 (≈ 93.9 µM)
15 | c1ccc(-c2noc(CC3CCCCC3)n2)nc1 | 32.2 (≈ 132 µM)
16 | CC(=O)Oc1ccc2nc(-c3ccco3)oc(=O)c2c1 | 27.7 (≈ 102 µM)
17 | CC(C)(C)c1ccc(NC(=O)NC2CCCc3ccccc32)cc1 (centres undefined) | < 0.3
18 | CC(=O)N1c2ccccc2Sc2ccccc21 | 26.4 (≈ 109 µM)
19 | CCOC(=O)c1sc(=NC(=O)c2cccc(C)c2)n(C)c1C | 0.7 (≈ 2.2 µM)
20 | CCc1ccn2cc(-c3cc(-c4ccccc4)no3)nc2c1 | 1.5 (≈ 5.18 µM)

Row | SMILES | solubility kinetic [µg/mL]
21 | CC1CC(=O)Nc2ccccc2N1S(=O)(=O)c1ccc(C#N)cc1 (centres undefined) | 2.7 (≈ 7.91 µM)
22 | Cc1ccccc1C(=O)NC(C(N)=O)P(=O)(OC(C)C)OC(C)C (centres undefined) | > 53.5
23 | O=C(Nc1nc2ccsc2c(=O)s1)c1ccco1 | 7.3 (≈ 26.2 µM)
24 | CN(Cc1cnccn1)Cc1nc(Cc2ccccc2F)no1 | > 47
25 | CC1CN(C(=O)CCCN2C(=O)c3ccccc3C2=O)CC(C)O1 (centres undefined) | > 49.6
26 | O=C(c1cccc(F)c1)N1CCC(c2nc3ccccc3s2)CC1 | > 51.1
27 | COc1ccc(N2C(=O)CC(N3CCCCC3)C2=O)cc1 (centres undefined) | > 43.3
28 | COc1ccccc1Oc1nc(-c2cccnc2)nc2ccccc12 | 2.1 (≈ 6.38 µM)
29 | O=C(NC1CC1)c1nc(Cn2cc([N+](=O)[O-])cn2)no1 | > 41.7
30 | CCOC(=O)c1sc(NC(=O)c2sc(C)nc2C)nc1C | 8.7 (≈ 26.7 µM)
31 | OC(CN1CCN(c2ccccc2F)CC1)c1ccc(F)cc1 (centres undefined) | > 47.8
32 | CC(=O)c1csc(COc2ccc(Cl)cc2)n1 | 3 (≈ 11.2 µM)
33 | CC(=O)N(C)c1ccc(C(O)(C(F)(F)F)C(F)(F)F)cc1 | > 47.3
34 | O=C(Nc1ccccc1Cl)c1sccc1-c1ccccc1 | < 0.7
35 | O=C1CCCC2=C1C(c1ccncc1)n1c(nc3ccccc31)N2 (centres undefined) | 6.7 (≈ 21.2 µM)
36 | CCCC1=[N+](CC(C)=O)CCn2c(C)ccc21.[Br-] | > 47
37 | COC(=O)c1ccc(C(=O)OC)c(NC(=O)CN2CCC(C)CC2)c1 | 0.6 (≈ 1.72 µM)
38 | Cc1ccc(N2C(=O)N(CC(=O)Nc3cc(C)cc(C)c3)C(=O)C2C)cc1 (centres undefined) | 7.5 (≈ 20.5 µM)
39 | CCCCC1CCC(C(=O)OC(C)C(=O)Nc2ccc(NC(C)=O)cc2)CC1 (centres undefined) | 9 (≈ 23.2 µM)
40 | COc1ccc(NC(=O)C#Cc2ccccc2)cc1 | 5.2 (≈ 20.7 µM)

Row | SMILES | solubility kinetic [µg/mL]
41 | O=C(Nc1ccc(N2CCN(c3ccccc3)CC2)c(F)c1)C1CC1 | < 0.2
42 | Cc1ccc(NC(=O)CN(C)C(=O)COc2cccc3cccnc23)cc1 | 52.4 (≈ 144 µM)
43 | Cc1cc(=O)oc(C)c1C(=O)NCCN(C)Cc1ccccc1 | > 47.2
44 | COc1ccc(Nc2nc(N)c([N+](=O)[O-])c(NCc3ccccc3)n2)cc1 | < 0.1
45 | CCOC(=O)C1CCCN(C(=O)Nc2c(-c3ccccc3)noc2C)C1 (centres undefined) | 52.4 (≈ 147 µM)
46 | COc1ccc(OC)c(NC(=O)c2cccc(NC(=O)c3ccccc3)c2)c1 | 9.8 (≈ 26 µM)
47 | CCC(=O)Nc1ccc(N/C(N)=N/c2nc(C)cc(C)n2)cc1 | 36.1 (≈ 116 µM)
48 | Cc1cccc2cc3ccccc3nc12 | < 0.4
49 | COc1cccc(CNC(=O)N[C@@H](C)C(=O)O)c1 | > 37.8
50 | COc1cc(OC)cc(C(=O)N[C@H](C(=O)NC2=NCCS2)C(C)C)c1 | > 54.8
51 | COC(=O)Cn1c2nc3ccccc3nc2c2cccc(C)c21 | 0.2 (≈ 0.655 µM)
52 | COc1ccccc1CNC(=O)COC(=O)Cc1ccc(Br)cc1 | 13.7 (≈ 34.9 µM)
53 | CS(=O)(=O)N(CCc1ccccc1)CC(=O)N1CCCC1 | > 46.6
54 | Cc1cc(C(=O)NCc2ccco2)sc1C | > 35.3
55 | CC(C)CNC(=O)CSc1nnc2ccccn12 | > 39.7
56 | O=[N+]([O-])c1ccc(CN2CCN(c3ccc([N+](=O)[O-])cc3)CC2)cc1 | 2 (≈ 5.84 µM)
57 | O=C1NC(=S)NC(=O)C1=Cc1ccc(Br)s1 | 44.3 (≈ 140 µM)
58 | COc1cccc(CNC(=O)CCNC(=O)c2ccco2)c1 | > 45.3
59 | COc1cccc(Oc2cc(Cl)nc(N)n2)c1 | 15 (≈ 59.6 µM)
